pIC50: −log10 of the molar value.
Tests used:
[1] = Apparent volume of distribution in Sprague-Dawley rat; assay type: ADME, organism-based; settings: in vivo, read-out: Vd(app)
Cytochrome P450 3A5 [2] = target: T1, Cytochrome P450 3A5 (Homo sapiens, UniProt P20815); assay: Drug metabolism assessed as recombinant human CYP3A5 mediated metabolite M1 formation at 10 uM preincubated for 5 mins followed by addition of NADPH measured after 120 mins by HPLC-TIC chromatography; assay type: ADME; settings: recombinant enzyme, 2 h
Plasma [3] = assay: Drug metabolism in Sprague-Dawley rat plasma assessed as 7-epi-3FDT formation at 40 mg/kg, iv administered as single dose after 4 to 24 hrs by HPLC-TIC chromatography; assay type: ADME, organism-based; settings: in vivo
Cytochrome P450 3A5 [4] = target: T1, Cytochrome P450 3A5; assay: Drug metabolism assessed as recombinant human CYP3A5 mediated metabolite M2 formation at 10 uM preincubated for 5 mins followed by addition of NADPH measured after 120 mins by HPLC-TIC chromatography; assay type: ADME; settings: recombinant enzyme, 2 h
Plasma [5] = assay: Drug metabolism in Sprague-Dawley rat plasma assessed as metabolite M1 formation at 40 mg/kg, iv administered as single dose after 4 to 24 hrs by HPLC-TIC chromatography; assay type: ADME, organism-based; settings: in vivo
[6] = Drug metabolism in Sprague-Dawley rat feces assessed as metabolite M2 formation at 40 mg/kg, iv administered as single dose after 24 hrs by HPLC-TIC chromatography; assay type: ADME, organism-based; settings: in vivo
Cytochrome P450 3A4 [7] = target: T2, Cytochrome P450 3A4 (Homo sapiens, UniProt P08684); assay: Drug metabolism assessed as recombinant human CYP3A4 mediated metabolite M2 formation at 10 uM preincubated for 5 mins followed by addition of NADPH measured after 120 mins by HPLC-TIC chromatography; assay type: ADME; settings: recombinant enzyme, 2 h
Cytochrome P450 2C8 = target: T3, Cytochrome P450 2C8 (Homo sapiens, UniProt P10632); assay: Drug metabolism assessed as recombinant human CYP2C8 mediated metabolite formation at 10 uM preincubated for 5 mins followed by addition of NADPH measured after 120 mins by HPLC-TIC chromatography; assay type: ADME; settings: recombinant enzyme, 2 h
T3 sequence (P10632 whole entry): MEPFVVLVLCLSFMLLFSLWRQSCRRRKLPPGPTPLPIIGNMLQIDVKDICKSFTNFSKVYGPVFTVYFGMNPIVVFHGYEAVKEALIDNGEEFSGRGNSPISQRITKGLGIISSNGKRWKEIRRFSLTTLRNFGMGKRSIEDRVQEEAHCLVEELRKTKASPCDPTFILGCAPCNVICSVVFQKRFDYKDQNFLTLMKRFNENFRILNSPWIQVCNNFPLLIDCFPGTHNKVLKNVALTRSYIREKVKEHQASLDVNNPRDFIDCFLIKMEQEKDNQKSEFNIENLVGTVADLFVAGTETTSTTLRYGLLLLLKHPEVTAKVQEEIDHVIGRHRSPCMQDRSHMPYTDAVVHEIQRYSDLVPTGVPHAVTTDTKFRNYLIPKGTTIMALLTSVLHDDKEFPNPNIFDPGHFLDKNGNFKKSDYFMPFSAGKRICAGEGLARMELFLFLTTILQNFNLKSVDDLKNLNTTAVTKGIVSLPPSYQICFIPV

Cytochrome P450 2C9 = Cytochrome P450 2C9 (Homo sapiens, UniProt P11712); assay: Drug metabolism assessed as recombinant human CYP2C9 mediated metabolite formation at 10 uM preincubated for 5 mins followed by addition of NADPH measured after 120 mins by HPLC-TIC chromatography; assay type: ADME; settings: recombinant enzyme, 2 h
Plasma [8] = assay: Drug metabolism in Sprague-Dawley rat plasma assessed as metabolite M2 formation at 40 mg/kg, iv administered as single dose after 4 to 24 hrs by HPLC-TIC chromatography; assay type: ADME, organism-based; settings: in vivo
[9] = Drug metabolism in Sprague-Dawley rat feces assessed as metabolite M8 formation at 40 mg/kg, iv administered as single dose after 24 hrs by HPLC-TIC chromatography; assay type: ADME, organism-based; settings: in vivo
[10] = Drug metabolism in Sprague-Dawley rat feces assessed as metabolite M3 formation at 40 mg/kg, iv administered as single dose after 24 hrs by HPLC-TIC chromatography; assay type: ADME, organism-based; settings: in vivo
[11] = Drug metabolism in Sprague-Dawley rat urine assessed as 7-epi-3FDT formation at 40 mg/kg, iv administered as single dose after 24 hrs by HPLC-TIC chromatography; assay type: ADME, organism-based; settings: in vivo
[12] = AUC (0 to infinity) in Sprague-Dawley rat; assay type: ADME, organism-based; design: time infinity; settings: in vivo
Cytochrome P450 2D6 = Cytochrome P450 2D6 (Homo sapiens, UniProt P10635); assay: Drug metabolism assessed as recombinant human CYP2D6 mediated metabolite formation at 10 uM preincubated for 5 mins followed by addition of NADPH measured after 120 mins by HPLC-TIC chromatography; assay type: ADME; settings: recombinant enzyme, 2 h
Cytochrome P450 2E1 = Cytochrome P450 2E1 (Homo sapiens, UniProt P05181); assay: Drug metabolism assessed as recombinant human CYP2E1 mediated metabolite M4 formation at 10 uM preincubated for 5 mins followed by addition of NADPH measured after 120 mins by HPLC-TIC chromatography; assay type: ADME; settings: recombinant enzyme, 2 h
[13] = Drug metabolism in Sprague-Dawley rat urine assessed as metabolite M1 formation at 40 mg/kg, iv administered as single dose after 24 hrs by HPLC-TIC chromatography; assay type: ADME, organism-based; settings: in vivo
[14] = Drug metabolism in Sprague-Dawley rat urine assessed as metabolite M3 formation at 40 mg/kg, iv administered as single dose after 24 hrs by HPLC-TIC chromatography; assay type: ADME, organism-based; settings: in vivo
Plasma [15] = assay: Drug metabolism in Sprague-Dawley rat plasma assessed as metabolite M4 formation at 40 mg/kg, iv administered as single dose after 4 to 24 hrs by HPLC-TIC chromatography; assay type: ADME, organism-based; settings: in vivo
Cytochrome P450 3A4 [16] = target: T2, Cytochrome P450 3A4; assay: Drug metabolism assessed as recombinant human CYP3A4 mediated metabolite M3 formation at 10 uM preincubated for 5 mins followed by addition of NADPH measured after 120 mins by HPLC-TIC chromatography; assay type: ADME; settings: recombinant enzyme, 2 h
[17] = Drug metabolism in Sprague-Dawley rat feces assessed as metabolite M7 formation at 40 mg/kg, iv administered as single dose after 24 hrs by HPLC-TIC chromatography; assay type: ADME, organism-based; settings: in vivo
[18] = Drug metabolism in Sprague-Dawley rat feces assessed as 7-epi-3FDT formation at 40 mg/kg, iv administered as single dose after 24 hrs by HPLC-TIC chromatography; assay type: ADME, organism-based; settings: in vivo
Cytochrome P450 3A4 [19] = target: T2, Cytochrome P450 3A4; assay: Drug metabolism assessed as recombinant human CYP3A4 mediated metabolite M1 formation at 10 uM preincubated for 5 mins followed by addition of NADPH measured after 120 mins by HPLC-TIC chromatography; assay type: ADME; settings: recombinant enzyme, 2 h
[20] = AUC (0 to t) in Sprague-Dawley rat; assay type: ADME, organism-based; settings: in vivo
Plasma [21] = assay: Drug metabolism in Sprague-Dawley rat plasma assessed as metabolite M3 formation at 40 mg/kg, iv administered as single dose after 4 to 24 hrs by HPLC-TIC chromatography; assay type: ADME, organism-based; settings: in vivo
Cytochrome P450 1A2 = target: T4, Cytochrome P450 1A2 (Homo sapiens, UniProt P05177); assay: Drug metabolism assessed as recombinant human CYP1A2 mediated metabolite formation at 10 uM preincubated for 5 mins followed by addition of NADPH measured after 120 mins by HPLC-TIC chromatography; assay type: ADME; settings: recombinant enzyme, 2 h
T4 sequence (P05177 whole entry): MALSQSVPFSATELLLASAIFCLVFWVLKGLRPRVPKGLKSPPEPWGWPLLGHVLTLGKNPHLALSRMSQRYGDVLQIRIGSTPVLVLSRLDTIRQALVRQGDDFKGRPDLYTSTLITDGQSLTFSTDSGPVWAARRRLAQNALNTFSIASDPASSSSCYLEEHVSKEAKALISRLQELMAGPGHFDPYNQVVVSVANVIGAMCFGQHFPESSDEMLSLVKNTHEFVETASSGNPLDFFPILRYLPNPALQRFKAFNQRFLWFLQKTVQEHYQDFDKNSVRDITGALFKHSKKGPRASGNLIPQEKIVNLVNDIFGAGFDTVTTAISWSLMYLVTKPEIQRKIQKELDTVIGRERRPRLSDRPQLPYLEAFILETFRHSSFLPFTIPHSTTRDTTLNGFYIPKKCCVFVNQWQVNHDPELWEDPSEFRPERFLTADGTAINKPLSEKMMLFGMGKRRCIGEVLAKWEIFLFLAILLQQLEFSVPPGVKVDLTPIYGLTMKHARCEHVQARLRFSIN

[22] = Drug metabolism in Sprague-Dawley rat feces assessed as metabolite M4 formation at 40 mg/kg, iv administered as single dose after 24 hrs by HPLC-TIC chromatography; assay type: ADME, organism-based; settings: in vivo
[23] = Cytotoxicity against human SKOV3 cells; assay type: functional, cell-based; settings: SK-OV-3
[24] = Drug metabolism in Sprague-Dawley rat feces assessed as metabolite M6 formation at 40 mg/kg, iv administered as single dose after 24 hrs by HPLC-TIC chromatography; assay type: ADME, organism-based; settings: in vivo
[25] = Drug metabolism in Sprague-Dawley rat urine assessed as metabolite M2 formation at 40 mg/kg, iv administered as single dose after 24 hrs by HPLC-TIC chromatography; assay type: ADME, organism-based; settings: in vivo
Cytochrome P450 2C19 = Cytochrome P450 2C19 (Homo sapiens, UniProt P33261); assay: Drug metabolism assessed as recombinant human CYP2C19 mediated metabolite formation at 10 uM preincubated for 5 mins followed by addition of NADPH measured after 120 mins by HPLC-TIC chromatography; assay type: ADME; settings: recombinant enzyme, 2 h
[26] = Total clearance in Sprague-Dawley rat plasma; assay type: ADME, organism-based
Cytochrome P450 2B6 = target: T5, Cytochrome P450 2B6 (Homo sapiens, UniProt P20813); assay: Drug metabolism assessed as recombinant human CYP2B6 mediated metabolite formation at 10 uM preincubated for 5 mins followed by addition of NADPH measured after 120 mins by HPLC-TIC chromatography; assay type: ADME; settings: recombinant enzyme, 2 h
T5 sequence (P20813 whole entry): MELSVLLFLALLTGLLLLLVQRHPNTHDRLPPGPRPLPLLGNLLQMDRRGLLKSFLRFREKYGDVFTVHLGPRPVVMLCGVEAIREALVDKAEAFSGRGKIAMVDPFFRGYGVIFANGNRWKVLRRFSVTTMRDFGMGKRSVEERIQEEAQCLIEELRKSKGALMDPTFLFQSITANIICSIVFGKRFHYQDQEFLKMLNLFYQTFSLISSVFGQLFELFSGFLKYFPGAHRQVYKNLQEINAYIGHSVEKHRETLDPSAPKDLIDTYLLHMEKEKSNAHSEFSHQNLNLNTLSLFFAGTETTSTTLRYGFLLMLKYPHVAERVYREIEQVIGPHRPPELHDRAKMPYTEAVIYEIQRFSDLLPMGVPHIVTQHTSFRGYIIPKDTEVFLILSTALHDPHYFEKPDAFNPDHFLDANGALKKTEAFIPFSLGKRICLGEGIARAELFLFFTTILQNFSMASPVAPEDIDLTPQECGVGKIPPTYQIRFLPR

Cytochrome P450 2A6 = target: T6, Cytochrome P450 2A6 (Homo sapiens, UniProt P11509); assay: Drug metabolism assessed as recombinant human CYP2A6 mediated metabolite formation at 10 uM preincubated for 5 mins followed by addition of NADPH measured after 120 mins by HPLC-TIC chromatography; assay type: ADME; settings: recombinant enzyme, 2 h
T6 sequence (P11509 whole entry): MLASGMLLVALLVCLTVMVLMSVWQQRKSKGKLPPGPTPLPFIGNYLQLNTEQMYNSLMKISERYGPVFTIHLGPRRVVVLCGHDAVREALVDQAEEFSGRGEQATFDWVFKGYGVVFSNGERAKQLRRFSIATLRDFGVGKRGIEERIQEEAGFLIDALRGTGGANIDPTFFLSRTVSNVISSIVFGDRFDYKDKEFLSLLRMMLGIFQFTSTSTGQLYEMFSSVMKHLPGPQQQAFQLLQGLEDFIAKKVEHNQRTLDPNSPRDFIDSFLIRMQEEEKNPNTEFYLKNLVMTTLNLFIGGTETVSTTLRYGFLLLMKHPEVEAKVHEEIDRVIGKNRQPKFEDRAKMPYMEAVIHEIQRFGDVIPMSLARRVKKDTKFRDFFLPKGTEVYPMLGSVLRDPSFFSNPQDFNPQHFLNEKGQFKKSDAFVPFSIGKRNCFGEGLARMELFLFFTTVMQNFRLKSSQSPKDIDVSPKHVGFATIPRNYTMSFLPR

[27] = Drug metabolism in Sprague-Dawley rat urine assessed as metabolite M4 formation at 40 mg/kg, iv administered as single dose after 24 hrs by HPLC-TIC chromatography; assay type: ADME, organism-based; settings: in vivo

T2 sequence (P08684 whole entry): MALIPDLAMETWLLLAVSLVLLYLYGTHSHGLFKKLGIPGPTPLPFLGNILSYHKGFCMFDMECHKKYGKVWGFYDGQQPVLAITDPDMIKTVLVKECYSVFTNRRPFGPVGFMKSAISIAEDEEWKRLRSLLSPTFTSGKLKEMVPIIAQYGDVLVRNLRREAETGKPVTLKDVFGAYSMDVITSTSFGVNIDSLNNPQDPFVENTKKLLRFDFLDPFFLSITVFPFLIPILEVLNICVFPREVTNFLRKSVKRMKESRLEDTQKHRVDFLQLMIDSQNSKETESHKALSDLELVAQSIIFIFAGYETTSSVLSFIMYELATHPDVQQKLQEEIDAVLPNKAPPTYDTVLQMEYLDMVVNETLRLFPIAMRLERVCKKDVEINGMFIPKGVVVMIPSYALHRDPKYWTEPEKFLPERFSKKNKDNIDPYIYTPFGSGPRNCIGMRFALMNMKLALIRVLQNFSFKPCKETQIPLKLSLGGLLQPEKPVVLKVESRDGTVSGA
T1 sequence (P20815 whole entry): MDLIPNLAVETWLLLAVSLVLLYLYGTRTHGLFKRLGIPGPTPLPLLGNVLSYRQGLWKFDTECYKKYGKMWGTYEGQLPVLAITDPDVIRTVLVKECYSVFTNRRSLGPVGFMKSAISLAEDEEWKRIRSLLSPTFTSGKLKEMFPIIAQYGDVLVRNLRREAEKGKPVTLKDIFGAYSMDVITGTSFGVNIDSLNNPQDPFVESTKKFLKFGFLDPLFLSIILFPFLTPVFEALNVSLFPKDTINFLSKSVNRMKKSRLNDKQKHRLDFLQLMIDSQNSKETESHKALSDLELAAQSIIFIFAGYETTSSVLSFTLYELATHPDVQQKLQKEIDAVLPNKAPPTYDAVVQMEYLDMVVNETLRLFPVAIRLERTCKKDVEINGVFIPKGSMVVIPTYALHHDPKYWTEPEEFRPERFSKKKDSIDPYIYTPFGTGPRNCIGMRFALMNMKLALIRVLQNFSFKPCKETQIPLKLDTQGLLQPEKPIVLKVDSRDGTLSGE
Chain of Cytochrome P450 2C9 (P11712 whole entry): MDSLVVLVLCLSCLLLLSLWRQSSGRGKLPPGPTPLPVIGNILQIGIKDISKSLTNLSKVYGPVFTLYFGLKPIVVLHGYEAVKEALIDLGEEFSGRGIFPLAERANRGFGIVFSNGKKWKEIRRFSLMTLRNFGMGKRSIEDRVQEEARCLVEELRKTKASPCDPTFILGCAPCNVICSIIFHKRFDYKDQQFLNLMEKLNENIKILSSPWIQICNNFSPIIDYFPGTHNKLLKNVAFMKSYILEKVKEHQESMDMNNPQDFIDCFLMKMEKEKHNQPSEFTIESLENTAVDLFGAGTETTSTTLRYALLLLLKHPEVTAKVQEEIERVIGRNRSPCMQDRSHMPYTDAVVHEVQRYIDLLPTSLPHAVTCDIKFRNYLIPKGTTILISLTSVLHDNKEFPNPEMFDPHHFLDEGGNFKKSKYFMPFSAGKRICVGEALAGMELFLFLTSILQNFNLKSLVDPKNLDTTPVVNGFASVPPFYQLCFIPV
Chain of Cytochrome P450 2D6 (P10635 whole entry): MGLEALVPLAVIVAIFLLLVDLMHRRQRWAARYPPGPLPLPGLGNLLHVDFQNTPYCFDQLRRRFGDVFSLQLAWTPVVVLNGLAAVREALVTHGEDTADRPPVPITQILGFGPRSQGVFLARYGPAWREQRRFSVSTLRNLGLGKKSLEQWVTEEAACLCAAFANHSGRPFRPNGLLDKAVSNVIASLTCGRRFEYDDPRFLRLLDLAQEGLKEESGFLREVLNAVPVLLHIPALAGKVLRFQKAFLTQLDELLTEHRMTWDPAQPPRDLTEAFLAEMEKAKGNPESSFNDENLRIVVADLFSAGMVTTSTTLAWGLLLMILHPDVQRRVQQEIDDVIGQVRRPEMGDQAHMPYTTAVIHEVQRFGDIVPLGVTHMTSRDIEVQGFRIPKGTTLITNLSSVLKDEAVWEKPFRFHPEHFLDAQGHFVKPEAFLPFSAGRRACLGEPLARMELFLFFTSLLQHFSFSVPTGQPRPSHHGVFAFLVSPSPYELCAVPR
Chain of Cytochrome P450 2E1 (P05181 whole entry): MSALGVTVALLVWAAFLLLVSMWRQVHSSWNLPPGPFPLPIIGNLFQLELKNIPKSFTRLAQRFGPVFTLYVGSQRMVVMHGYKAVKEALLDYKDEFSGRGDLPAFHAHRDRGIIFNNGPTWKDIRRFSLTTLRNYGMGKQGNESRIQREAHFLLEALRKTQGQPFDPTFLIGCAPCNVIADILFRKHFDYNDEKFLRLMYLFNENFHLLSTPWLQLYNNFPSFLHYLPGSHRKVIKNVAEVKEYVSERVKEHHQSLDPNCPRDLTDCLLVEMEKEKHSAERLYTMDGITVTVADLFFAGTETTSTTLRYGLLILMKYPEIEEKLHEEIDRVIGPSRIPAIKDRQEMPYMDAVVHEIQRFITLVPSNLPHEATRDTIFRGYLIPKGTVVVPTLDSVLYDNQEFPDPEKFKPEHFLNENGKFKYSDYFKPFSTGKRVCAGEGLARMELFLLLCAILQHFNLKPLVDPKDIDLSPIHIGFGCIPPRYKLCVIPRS
Chain of Cytochrome P450 2C19 (P33261 whole entry): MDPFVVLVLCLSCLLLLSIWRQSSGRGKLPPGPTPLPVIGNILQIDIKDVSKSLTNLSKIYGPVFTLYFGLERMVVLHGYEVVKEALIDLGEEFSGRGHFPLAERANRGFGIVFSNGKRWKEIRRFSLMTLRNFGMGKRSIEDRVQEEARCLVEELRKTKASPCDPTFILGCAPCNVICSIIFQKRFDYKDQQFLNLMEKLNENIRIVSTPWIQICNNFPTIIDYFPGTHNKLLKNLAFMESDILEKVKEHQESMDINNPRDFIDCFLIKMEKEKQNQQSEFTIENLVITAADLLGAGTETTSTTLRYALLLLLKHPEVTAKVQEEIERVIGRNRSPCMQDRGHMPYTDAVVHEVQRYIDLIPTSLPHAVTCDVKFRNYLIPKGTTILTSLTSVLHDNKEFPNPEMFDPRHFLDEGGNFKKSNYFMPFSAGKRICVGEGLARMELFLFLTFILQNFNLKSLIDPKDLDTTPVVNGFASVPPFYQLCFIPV

## CC(=O)O[C@@]12CO[C@@H]1C[C@H](O)[C@@]1(C)C(=O)[C@H](O)C3=C(C)[C@@H](OC(=O)[C@H](O)[C@@H](NC(=O)OC(C)(C)C(F)(F)F)c4ccccc4)C[C@@](O)([C@@H](OC(=O)c4ccccc4)C12)C3(C)C (stereo not given in full)
[1]
  Vd: 18.1 L/kg
Cytochrome P450 3A5 [2]
  Drug metabolism: metabolite_detected
Plasma [3]
  Drug metabolism: metabolite_detected
Cytochrome P450 3A5 [4]
  Drug metabolism: metabolite_detected
Plasma [5]
  Drug metabolism: metabolite_notdetected
[6]
  Drug metabolism: metabolite_detected
Cytochrome P450 3A4 [7]
  Drug metabolism: metabolite_detected
Cytochrome P450 2C8
  Drug metabolism: metabolite_notdetected
Cytochrome P450 2C9
  Drug metabolism: metabolite_notdetected
Plasma [8]
  Drug metabolism: metabolite_notdetected
[9]
  Drug metabolism: metabolite_detected
[10]
  Drug metabolism: metabolite_detected
[11]
  Drug metabolism: metabolite_detected
[12]
  AUC(0-inf): 3960 ng·h/mL
Cytochrome P450 2D6
  Drug metabolism: metabolite_notdetected
Cytochrome P450 2E1
  Drug metabolism: metabolite_detected
[13]
  Drug metabolism: metabolite_notdetected
[14]
  Drug metabolism: metabolite_notdetected
Plasma [15]
  Drug metabolism: metabolite_detected
Cytochrome P450 3A4 [16]
  Drug metabolism: metabolite_detected
[17]
  Drug metabolism: metabolite_detected
[18]
  Drug metabolism: metabolite_detected
Cytochrome P450 3A4 [19]
  Drug metabolism: metabolite_detected
[20]
  AUC(0-t): 3860 ng·h/mL
Plasma [21]
  Drug metabolism: metabolite_notdetected
Cytochrome P450 1A2
  Drug metabolism: metabolite_notdetected
[22]
  Drug metabolism: metabolite_detected
[23]
  pIC50: 11.00
[24]
  Drug metabolism: metabolite_detected
[25]
  Drug metabolism: metabolite_notdetected
Cytochrome P450 2C19
  Drug metabolism: metabolite_notdetected
[26]
  clearance: 21 mL/min/kg
Cytochrome P450 2B6
  Drug metabolism: metabolite_notdetected
Cytochrome P450 2A6
  Drug metabolism: metabolite_notdetected
[27]
  Drug metabolism: metabolite_detected
